Legend:
Type in all cases: functional
Staphylococcus aureus [1] = assay: Antibacterial activity against methicillin-resistant Staphylococcus aureus 11 assessed as bacterial growth inhibition in presence of 50 ug/ml calcium ions by CLSI protocol based broth microdilution method
Staphylococcus aureus [2] = assay: Antibacterial activity against methicillin-resistant Staphylococcus aureus 14 assessed as bacterial growth inhibition in presence of 50 ug/ml calcium ions by CLSI protocol based broth microdilution method
Staphylococcus aureus [3] = assay: Antibacterial activity against methicillin-resistant Staphylococcus aureus 86 assessed as bacterial growth inhibition in presence of 50 ug/ml calcium ions by CLSI protocol based broth microdilution method
Staphylococcus aureus [4] = assay: Antibacterial activity against methicillin-resistant Staphylococcus aureus 88 assessed as bacterial growth inhibition in presence of 50 ug/ml calcium ions by CLSI protocol based broth microdilution method
Staphylococcus aureus [5] = assay: Antibacterial activity against Staphylococcus aureus ATCC 29213 assessed as bacterial growth inhibition in presence of 50 ug/ml calcium ions by CLSI protocol based broth microdilution method
Enterococcus faecalis [6] = assay: Antibacterial activity against Streptococcus faecalis assessed as bacterial growth inhibition in presence of 50 ug/ml calcium ions by CLSI protocol based broth microdilution method
Enterococcus [7] = assay: Antibacterial activity against Enterococcus 6 assessed as bacterial growth inhibition in presence of 50 ug/ml calcium ions by CLSI protocol based broth microdilution method
Enterococcus [8] = assay: Antibacterial activity against Enterococcus 60 assessed as bacterial growth inhibition in presence of 50 ug/ml calcium ions by CLSI protocol based broth microdilution method
Enterococcus faecalis [9] = assay: Antibacterial activity against Enterococcus faecalis ATCC 29212 assessed as bacterial growth inhibition in presence of 50 ug/ml calcium ions by CLSI protocol based broth microdilution method

CCCCCCCCCC(=O)N[C@@H](Cc1c[nH]c2ccccc12)C(=O)N[C@@H](CC(N)=O)C(=O)N[C@@H](CC(=O)O)C(=O)N[C@@H]1C(=O)NCC(=O)N[C@@H](Cc2c[nH]cn2)C(=O)N[C@@H](CC(=O)O)C(=O)N[C@H](C)C(=O)N[C@@H](CC(=O)O)C(=O)NCC(=O)N[C@H](CO)C(=O)N[C@@H]([C@@H](C)CC(=O)O)C(=O)N[C@@H](CC(=O)c2ccccc2N)C(=O)O[C@@H]1C
MIC (Staphylococcus aureus [1]): 16 µg/mL
MIC (Staphylococcus aureus [2]): 16 µg/mL
MIC (Staphylococcus aureus [3]): 8 µg/mL
MIC (Staphylococcus aureus [4]): 8 µg/mL
MIC (Staphylococcus aureus [5]): 8 µg/mL
MIC (Enterococcus faecalis [6]): ≥ 32 µg/mL
MIC (Enterococcus [7]): ≥ 32 µg/mL
MIC (Enterococcus [8]): ≥ 32 µg/mL
MIC (Enterococcus faecalis [9]): ≥ 32 µg/mL

CCCCCCCCCC(=O)N[C@@H](Cc1c[nH]c2ccccc12)C(=O)N[C@@H](CC(N)=O)C(=O)N[C@@H](CC(=O)O)C(=O)N[C@@H]1C(=O)NCC(=O)N[C@@H](CO)C(=O)N[C@@H](CC(=O)O)C(=O)N[C@H](C)C(=O)N[C@@H](CC(=O)O)C(=O)NCC(=O)N[C@H](CO)C(=O)N[C@@H]([C@@H](C)CC(=O)O)C(=O)N[C@@H](CC(=O)c2ccccc2N)C(=O)O[C@@H]1C
MIC (Staphylococcus aureus [1]): 4 µg/mL
MIC (Staphylococcus aureus [2]): 4 µg/mL
MIC (Staphylococcus aureus [3]): 2 µg/mL
MIC (Staphylococcus aureus [4]): 1 µg/mL
MIC (Staphylococcus aureus [5]): 2 µg/mL
MIC (Enterococcus faecalis [6]): 4 µg/mL
MIC (Enterococcus [7]): 32 µg/mL
MIC (Enterococcus [8]): ≥ 32 µg/mL
MIC (Enterococcus faecalis [9]): ≥ 32 µg/mL

C[C@H]1NC(=O)[C@H](CC(=O)O)NC(=O)[C@H](CCCN)NC(=O)CNC(=O)[C@@H](NC(=O)[C@H](CC(=O)O)NC(=O)[C@H](CC(N)=O)NC(=O)[C@H](Cc2c[nH]c3ccccc23)NC(=O)c2ccc(C#Cc3ccccc3)cc2)[C@@H](C)OC(=O)[C@H](CC(=O)c2ccccc2N)NC(=O)[C@H]([C@@H](C)CC(=O)O)NC(=O)[C@@H](CO)NC(=O)CNC(=O)[C@H](CC(=O)O)NC1=O
MIC (Staphylococcus aureus [1]): 0.25 µg/mL
MIC (Staphylococcus aureus [2]): 0.5 µg/mL
MIC (Staphylococcus aureus [3]): 0.5 µg/mL
MIC (Staphylococcus aureus [4]): 0.5 µg/mL
MIC (Staphylococcus aureus [5]): 0.5 µg/mL
MIC (Enterococcus faecalis [6]): 1 µg/mL
MIC (Enterococcus [7]): 8 µg/mL
MIC (Enterococcus [8]): 2 µg/mL
MIC (Enterococcus faecalis [9]): 8 µg/mL

CCCCCCCCCC(=O)N[C@@H](Cc1c[nH]c2ccccc12)C(=O)N[C@@H](CC(N)=O)C(=O)N[C@@H](CC(=O)O)C(=O)N[C@@H]1C(=O)NCC(=O)N[C@@H](CCCN)C(=O)N[C@@H](CCC(=O)O)C(=O)N[C@H](C)C(=O)N[C@@H](CCC(=O)O)C(=O)NCC(=O)N[C@H](CO)C(=O)N[C@@H]([C@@H](C)CC(=O)O)C(=O)N[C@@H](CC(=O)c2ccccc2N)C(=O)O[C@@H]1C
MIC (Staphylococcus aureus [1]): ≥ 32 µg/mL
MIC (Staphylococcus aureus [2]): ≥ 32 µg/mL
MIC (Staphylococcus aureus [3]): ≥ 32 µg/mL
MIC (Staphylococcus aureus [4]): ≥ 32 µg/mL
MIC (Staphylococcus aureus [5]): ≥ 32 µg/mL
MIC (Enterococcus faecalis [6]): ≥ 32 µg/mL
MIC (Enterococcus [7]): ≥ 32 µg/mL
MIC (Enterococcus [8]): ≥ 32 µg/mL
MIC (Enterococcus faecalis [9]): ≥ 32 µg/mL

CCCCCCCCCC(=O)N[C@@H](Cc1c[nH]c2ccccc12)C(=O)N[C@@H](CC(N)=O)C(=O)N[C@@H](CC(=O)O)C(=O)N[C@@H]1C(=O)NCC(=O)N[C@@H](CC(=O)O)C(=O)N[C@@H](CC(=O)O)C(=O)N[C@H](C)C(=O)N[C@@H](CC(=O)O)C(=O)NCC(=O)N[C@H](CO)C(=O)N[C@@H]([C@@H](C)CC(=O)O)C(=O)N[C@@H](CC(=O)c2ccccc2N)C(=O)O[C@@H]1C
MIC (Staphylococcus aureus [1]): ≥ 32 µg/mL
MIC (Staphylococcus aureus [2]): ≥ 32 µg/mL
MIC (Staphylococcus aureus [3]): 16 µg/mL
MIC (Staphylococcus aureus [4]): 8 µg/mL
MIC (Staphylococcus aureus [5]): 16 µg/mL
MIC (Enterococcus faecalis [6]): ≥ 32 µg/mL
MIC (Enterococcus [7]): ≥ 32 µg/mL
MIC (Enterococcus [8]): ≥ 32 µg/mL
MIC (Enterococcus faecalis [9]): ≥ 32 µg/mL

CCCCCCCCCC(=O)N[C@@H](Cc1c[nH]c2ccccc12)C(=O)N[C@@H](CC(N)=O)C(=O)N[C@@H](CC(=O)O)C(=O)N[C@@H]1C(=O)NCC(=O)N[C@@H](CCCN)C(=O)N[C@@H](CC(=O)O)C(=O)N[C@H](C)C(=O)N[C@@H](CC(N)=O)C(=O)NCC(=O)N[C@H](CO)C(=O)N[C@@H]([C@@H](C)CC(=O)O)C(=O)N[C@@H](CC(=O)c2ccccc2N)C(=O)O[C@@H]1C
MIC (Staphylococcus aureus [1]): ≥ 32 µg/mL
MIC (Staphylococcus aureus [2]): ≥ 32 µg/mL
MIC (Staphylococcus aureus [3]): 32 µg/mL
MIC (Staphylococcus aureus [4]): 16 µg/mL
MIC (Staphylococcus aureus [5]): 16 µg/mL
MIC (Enterococcus faecalis [6]): ≥ 32 µg/mL
MIC (Enterococcus [7]): ≥ 32 µg/mL
MIC (Enterococcus [8]): ≥ 32 µg/mL
MIC (Enterococcus faecalis [9]): ≥ 32 µg/mL

CCCCCCCCCC(=O)N[C@@H](Cc1c[nH]c2ccccc12)C(=O)N[C@@H](CC(N)=O)C(=O)N[C@@H](CC(=O)O)C(=O)N[C@@H]1C(=O)NCC(=O)N[C@@H](CN)C(=O)N[C@@H](CC(=O)O)C(=O)N[C@H](C)C(=O)N[C@@H](CC(=O)O)C(=O)NCC(=O)N[C@H](CO)C(=O)N[C@@H]([C@@H](C)CC(=O)O)C(=O)N[C@@H](CC(=O)c2ccccc2N)C(=O)O[C@@H]1C
MIC (Staphylococcus aureus [1]): 8 µg/mL
MIC (Staphylococcus aureus [2]): 1 µg/mL
MIC (Staphylococcus aureus [3]): 1 µg/mL
MIC (Staphylococcus aureus [4]): 0.5 µg/mL
MIC (Staphylococcus aureus [5]): 1 µg/mL
MIC (Enterococcus [7]): ≥ 32 µg/mL
MIC (Enterococcus [8]): 8 µg/mL
MIC (Enterococcus faecalis [9]): ≥ 32 µg/mL

CCCCCCCCCC(=O)N[C@@H](Cc1c[nH]c2ccccc12)C(=O)N[C@@H](CC(N)=O)C(=O)N[C@@H](CC(=O)O)C(=O)N[C@@H]1C(=O)NCC(=O)N[C@@H](CCN)C(=O)N[C@@H](CC(=O)O)C(=O)N[C@H](C)C(=O)N[C@@H](CC(=O)O)C(=O)NCC(=O)N[C@H](CO)C(=O)N[C@@H]([C@@H](C)CC(=O)O)C(=O)N[C@@H](CC(=O)c2ccccc2N)C(=O)O[C@@H]1C
MIC (Staphylococcus aureus [1]): 2 µg/mL
MIC (Staphylococcus aureus [2]): 0.5 µg/mL
MIC (Staphylococcus aureus [3]): 0.25 µg/mL
MIC (Staphylococcus aureus [4]): 0.25 µg/mL
MIC (Staphylococcus aureus [5]): 0.25 µg/mL
MIC (Enterococcus [7]): 16 µg/mL
MIC (Enterococcus [8]): 8 µg/mL
MIC (Enterococcus faecalis [9]): 16 µg/mL
